These results are taken from publication PMC3140574 (Journal of immunology (Baltimore, Md. : 1950), 2011).

Where a SMILES comes first, the peptide text is derived from it.

One assay concerns the target HLA-A*0201 (Homo sapiens, UniProt P04439, D140Y/D185E/D98H/E176V/E277Q/G131W/G231S/I119V/I121R/I166T/I218V/L300P/L318F/N151K/N90K/P208A/P217A/Q86G/Q94H/R138H/R169H/T345S). Put plainly: HLA-A*0201-peptide binding.
Assay [1] relates to splenocytes of ML1419c p113-121 immunized HLA-A2tg mice. It counts as cell-based.

Compound `CC(C)C[C@H](NC(=O)[C@@H](NC(=O)[C@@H](NC(=O)CNC(=O)[C@H](CC(=O)O)NC(=O)[C@H](CC(C)C)NC(=O)[C@@H](N)CCCNC(=N)N)[C@@H](C)O)[C@@H](C)O)C(=O)N[C@@H](CCC(=O)O)C(=O)N[C@H](C(=O)O)C(C)C` [ML1419c p113-121, RLDGTTLEV] (H-RLDGTTLEV-OH) showed an IC50 at HLA-A*0201 of 35 nM.

For the compound concanavalin A [conA], in assay [1], the IFN-γ stood at 5112 pg/mL, the IL-6 amounted to 299 pg/mL, the IP-10 is 251 pg/mL and the MIG came out at 533 pg/mL. In assay [1], this compound came in with an MIP-β of 787 pg/mL, a TNF-α of 33 pg/mL and a VEGF of 83 pg/mL.
